Where “and” joins values, the source holds several entries; their conditions need not be identical. Identical values can stand only once.
Assay: molar heat capacity at saturation pressure
Conditions: Crystal, Vacuum adiabatic calorimetry

CCCCn1cc[n+](C)c1.O=S(=O)([O-])C(F)(F)F [1-butyl-3-methylimidazolium trifluoromethanesulfonate]
Conditions | molar heat capacity
5.202 K | 1.664 J/K/mol
5.437 K | 1.901 J/K/mol
5.715 K | 2.221 J/K/mol
5.999 K | 2.57 J/K/mol
6.317 K | 2.999 J/K/mol
6.671 K | 3.523 J/K/mol
7.032 K | 4.097 J/K/mol
7.395 K | 4.732 J/K/mol
7.763 K | 5.393 J/K/mol
8.135 K | 6.123 J/K/mol
8.512 K | 6.893 J/K/mol
8.894 K | 7.698 J/K/mol
9.277 K | 8.558 J/K/mol
9.664 K | 9.444 J/K/mol
10.05 K | 10.36 J/K/mol
10.55 K | 11.59 J/K/mol
11.16 K | 13.11 J/K/mol
11.77 K | 14.7 J/K/mol
12.38 K | 16.35 J/K/mol
13 K | 18.04 J/K/mol
13.62 K | 19.77 J/K/mol
14.25 K | 21.58 J/K/mol
14.88 K | 23.41 J/K/mol
15.62 K | 25.59 J/K/mol
16.48 K | 28.21 J/K/mol
17.34 K | 30.75 J/K/mol
18.21 K | 33.27 J/K/mol
19.07 K | 35.79 J/K/mol
19.94 K | 38.35 J/K/mol
21.15 K | 41.92 J/K/mol
22.72 K | 46.46 J/K/mol
24.29 K | 51.02 J/K/mol
25.87 K | 55.46 J/K/mol
27.45 K | 59.71 J/K/mol
28.86 K | 63.39 J/K/mol
30.34 K | 67.25 J/K/mol
32.09 K | 71.61 J/K/mol
34 K | 76.13 J/K/mol
35.92 K | 80.4 J/K/mol
37.84 K | 84.48 J/K/mol
39.76 K | 88.4 J/K/mol
41.78 K | 92.42 J/K/mol
43.9 K | 96.53 J/K/mol
46.01 K | 100.5 J/K/mol
48.13 K | 104.3 J/K/mol
50.25 K | 108 J/K/mol
52.38 K | 111.5 J/K/mol
54.5 K | 114.9 J/K/mol
56.63 K | 118.1 J/K/mol
58.75 K | 121.2 J/K/mol
60.89 K | 124.2 J/K/mol
63.03 K | 127.2 J/K/mol
65.17 K | 130.1 J/K/mol
67.3 K | 133 J/K/mol
69.44 K | 135.8 J/K/mol
71.69 K | 138.7 J/K/mol
74.03 K | 141.6 J/K/mol
76.39 K | 144.5 J/K/mol
78.69 K | 147.6 J/K/mol and 147.7 J/K/mol
78.74 K | 147.4 J/K/mol
80.59 K | 149.7 J/K/mol
80.61 K | 149.7 J/K/mol
81.1 K | 150.1 J/K/mol
82.36 K | 151.6 J/K/mol
82.4 K | 151.6 J/K/mol
83.47 K | 152.9 J/K/mol
84.13 K | 153.6 J/K/mol
84.19 K | 153.7 J/K/mol
85.92 K | 155.7 J/K/mol
86 K | 155.7 J/K/mol
87.73 K | 157.6 J/K/mol
87.81 K | 157.6 J/K/mol
89.54 K | 159.5 J/K/mol
89.64 K | 159.6 J/K/mol
91.35 K | 161.5 J/K/mol
91.48 K | 161.6 J/K/mol
93.18 K | 163.4 J/K/mol
93.33 K | 163.6 J/K/mol
95.02 K | 165.5 J/K/mol
95.19 K | 165.6 J/K/mol
96.87 K | 167.3 J/K/mol
97.05 K | 167.5 J/K/mol
98.72 K | 169.2 J/K/mol
98.92 K | 169.4 J/K/mol
100.59 K | 171.1 J/K/mol
100.8 K | 171.4 J/K/mol
102.64 K | 173.1 J/K/mol
102.7 K | 173.3 J/K/mol
104.6 K | 175.1 J/K/mol
104.89 K | 175.5 J/K/mol
106.5 K | 177 J/K/mol
107.15 K | 177.7 J/K/mol
108.41 K | 178.9 J/K/mol
109.42 K | 179.9 J/K/mol
110.33 K | 180.8 J/K/mol
111.71 K | 182.1 J/K/mol
112.25 K | 182.6 J/K/mol
114.01 K | 184.4 J/K/mol
114.17 K | 184.5 J/K/mol
116.1 K | 186.5 J/K/mol
116.31 K | 186.8 J/K/mol
118.04 K | 189.9 J/K/mol
118.61 K | 190.7 J/K/mol
119.97 K | 192.6 J/K/mol
120.92 K | 192.7 J/K/mol
121.91 K | 193.4 J/K/mol
123.24 K | 193.9 J/K/mol
123.85 K | 194.3 J/K/mol
125.56 K | 195.3 J/K/mol
125.8 K | 195.5 J/K/mol
127.76 K | 196.9 J/K/mol
127.9 K | 197 J/K/mol
129.72 K | 198.4 J/K/mol
130.24 K | 198.8 J/K/mol
131.68 K | 200 J/K/mol
132.58 K | 200.7 J/K/mol
133.65 K | 201.6 J/K/mol
134.93 K | 202.7 J/K/mol
135.63 K | 203.2 J/K/mol
137.28 K | 204.7 J/K/mol
137.6 K | 204.9 J/K/mol
139.58 K | 206.5 J/K/mol
139.64 K | 206.6 J/K/mol
141.56 K | 208.3 J/K/mol
142 K | 208.7 J/K/mol
143.55 K | 210.1 J/K/mol
144.36 K | 210.9 J/K/mol
145.53 K | 211.9 J/K/mol
146.73 K | 213 J/K/mol
147.51 K | 213.7 J/K/mol
149.09 K | 215.2 J/K/mol
149.5 K | 215.5 J/K/mol
151.45 K | 217.4 J/K/mol
151.48 K | 217.4 J/K/mol
153.46 K | 219.3 J/K/mol
153.82 K | 219.6 J/K/mol
155.44 K | 221.2 J/K/mol
156.18 K | 221.9 J/K/mol
157.42 K | 223.1 J/K/mol
158.55 K | 224.2 J/K/mol
159.41 K | 225.1 J/K/mol
160.91 K | 226.5 J/K/mol
161.39 K | 226.9 J/K/mol
163.28 K | 228.8 J/K/mol
163.37 K | 228.9 J/K/mol
165.35 K | 230.9 J/K/mol
165.64 K | 231.1 J/K/mol
167.32 K | 232.8 J/K/mol
168 K | 233.4 J/K/mol
169.3 K | 234.8 J/K/mol
